The results in this text go back to US20110280940A1, “Di-Vanilloyl And Tri-Vanilloyl Derivatives For Use In Anti-Cancer Therapy” (priority 2008, published 2011).

The subject of one experiment is VM21 melanoma cells. Put plainly: MTT colorimetric assay, overall cell growth, VM21. Format: cell-based, human. Particulars: Homo sapiens, read-out: In Vitro IC50 Growth Inhibitory Values, VM21. Summed up: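 Cells were seeded, left 24 h at 37 °C, then exposed to compound at molar concentrations from 10^-8 to 10^-4 M for 72 h at 37 °C, in sestuplicate. Mean OD gave % living cells versus untreated control.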

A further experiment concerns the target T1, DYRK1A kinase (Homo sapiens, UniProt Q13627).
T1 construct: made in house
As to the kind of experiment: Radiometric protein kinase assay (33 PanQinase), DYRK-1A. Format: biochemical. The conditions noted are these: for IC50: dose-response 0-100 μM, n=3, read-out: IC50: Concentration of drug needed in order to inhibit kinase activity by 50%, DYRK-1A; for inhibition at 57 µM: read-out: inhibition of DYRK-1A activity. On the procedure: The kinase inhibition profile of DLT11 at 20 μM was determined using 250 protein kinases. […] A radiometric protein kinase assay (33 PanQinase®Activity Assay) was used for measuring the kinase activity of 250 protein kinases. All kinase assays were performed in 96-well flashPlates™ from Perkin Elmer (Boston, Mass., USA) in a 50 μl reaction volume. The reaction cocktail was pipetted in 4 steps in the following order: • 10 μl of non-radioactive ATP solution (in H2O) • 25 μl of assay buffer/[γ-33P]-ATP mixture • 5 μl of test sample in 10% DMSO • 10 μl of enzyme/substrate mixture
The kinase inhibition profile of DLT95-Cl at 20 μM was determined using 255 protein kinases. […] A radiometric protein kinase assay (33 PanQinase®Activity Assay) was used for measuring the kinase activity of 250 protein kinases. All kinase assays were performed in 96-well flashPlates™ from Perkin Elmer (Boston, Mass., USA) in a 50 μl reaction volume. The reaction cocktail was pipetted in 4 steps in the following order: • 10 μl of non-radioactive ATP solution (in H2O) • 25 μl of assay buffer/[γ-33P]-ATP mixture • 5 μl of test sample in 10% DMSO • 10 μl of enzyme/substrate mixture
The assay for all enzymes contained 60 mM HEPES-NaOH, pH 7.5, 3 mM MgCl2, 3 mM MnCl2, 3 μM Na-orthovanadate, 1.2 mM DTT, 50 μg/ml PEG20000, 1 μM ATP/[γ-33P]-ATP (approx. […] per well), protein kinase, and substrate. All PKC assays (except the PKC-mu and the PKC-nu assay) additionally contained 1 mM CaCl2, 4 mM EDTA, 5 μg/ml Phosphatidylserine and 1 μg/ml 1,2-Dioleyl-glycerol. The MYLK2, CAMK1D, CAMK2A, CAMK2B, CAMK2D, CAMK4, CAMKK2, DAPK2 and EEF2K assays additionally contained 1 μg/ml Calmodulin and 0.5 mM CaCl2. The PRKG1 and PRKG2 assays additionally contained 1 μM cGMP.
The protein kinases were expressed either in Sf9 insect cells or in E. coli as recombinant GST-fusion proteins or as His-tagged proteins. All kinases were produced from human cDNAs. Kinases were purified by affinity chromatography using either GSH-agarose (Sigma) or Ni-NTH-agarose (Qiagen). The purity of the protein kinases was examined by SDS-PAGE/coomassie staining. The identity of the protein kinases was checked by mass spectroscopy.
The reaction cocktails were incubated at 30° C. for 60 minutes. The reaction was stopped with 50 μl of 2% (v/v) H3PO4, plates were aspirated and washed two times with 200 μl 0.9% (w/v) NaCl. All assays were performed with a BeckmanCoulter Biomek 2000/SL robotic system.
Incorporation of ^33Pi (counting of “cpm”) was determined with a microplate scintillation counter (Microbeta, Wallac).
For each kinase, the median value of the cpm of three wells with complete reaction cocktails, but without kinase, was defined as “low control” […]. This value reflects unspecific binding of radioactivity to the plate in the absence of protein kinase but in the presence of the substrate. Additionally, for each kinase the median value of the cpm of three other wells with the complete reaction cocktail, but without any compound, was taken as the “high control”, i.e. full activity in the absence of any inhibitor […]. The difference between high and low control of was taken as 100% activity for each kinase. As part of the data evaluation the low control value of each kinase was subtracted from the high control value as well as from their corresponding “compound values”. The residual activity (in %) for each compound well was calculated by using the following formula: Res. Activity (%)=100×[(cpm of compound−low control)/(high control−low control)]

Like-named read-outs stand apart in the source and are kept apart here.

With `COc1cc(C(=O)OCCOC(=O)c2ccc(O)c(OC)c2)ccc1O` [DLT1, Ethane-1,2-diyl bis-(4-hydroxy-3-methoxybenzoate)], the IC50 with VM21 melanoma cells (MTT, 72 hours of incubation) was determined as 55 µM.
As for `COc1cc(C(=O)OCCCCCCOC(=O)c2ccc(O)c(OC)c2)ccc1O` [DLT11, Hexane-1,6-diyl bis-(4-hydroxy-3-methoxybenzoate)], the IC50 in the experiment with VM21 melanoma cells (MTT, 72 hours of incubation) amounted to 71 µM. Further, on DYRK1A kinase (20 μM (FIG. 3)), the “inhibition of Dyrk1A” value was 5%.
As for `COc1cc(C(=O)OCc2cc(COC(=O)c3ccc(O)c(OC)c3)cc(COC(=O)c3ccc(O)c(OC)c3)c2)ccc1O` [DLT95, [3,5-bis[(4-hydroxy-3-methoxy-benzoyl)oxymethyl]phenyl]methyl 4-hydroxy-3-methoxy-benzoate], on DYRK1A kinase, the IC50 was over 100 µM.
The inhibition is how much of the control response was suppressed. Regarding `O=C(OCc1cc(COC(=O)c2ccc(O)c(Cl)c2)cc(COC(=O)c2ccc(O)c(Cl)c2)c1)c1ccc(O)c(Cl)c1` [DLT95-Cl, [3,5-bis[(4-hydroxy-3-chloro-benzoyl)oxymethyl]phenyl]methyl 4-hydroxy-3-chloro-benzoate], in the experiment with VM21 melanoma cells (72 h), the IC50 amounted to 35 µM. At DYRK1A kinase, the IC50 amounted to 3.2 µM and the inhibition at 57 µM is at least 50%.
The like results for `O=C(OCc1cc(COC(=O)c2ccc(O)c(F)c2)cc(COC(=O)c2ccc(O)c(F)c2)c1)c1ccc(O)c(F)c1` [DLT95-F, [3,5-bis[(4-hydroxy-3-fluoro-benzoyl)oxymethyl]phenyl]methyl 4-hydroxy-3-fluoro-benzoate] were, in that order, 65 µM, 7.1 µM and at least 50%.
`COc1cc(C(=O)O)ccc1O` [vanillic acid, reference compound]: the IC50 with VM21 melanoma cells (MTT, 72 hours of incubation) was over 1000 µM; on DYRK1A kinase, over 100 µM.
